Reference: article PMC12910667, “Investigating the Landscape of C6-Azaindole Side Chain on the Epoxymorphinan Skeleton via the Nitrogen Walk Concept: A Strategy to Enhance Drug-Like Properties” (Journal of Medicinal Chemistry, 2026)

Experiments:
KOR = target: T1, KOR (Mus musculus, UniProt P33534); test: competitive radioligand binding assay, KOR; details: CHO cell membranes; mean ± SEM (n ≥ 3)
T1 construct: expressed in transfected cells; host or cells: CHO cells (provided by Dr. Selley, Virginia Commonwealth University)

MOR = target: T2, MOR (Mus musculus, UniProt P42866); test: [35S]-GTPγS functional assay at MOR; type: biochemical; details: relative to 3 μM DAMGO; mean ± SEM (n ≥ 3)
T2 construct: expressed in transfected cells

[1] = target: T3, human δ-opioid receptor (DOR) (Homo sapiens, UniProt P41143); test: competitive radioligand binding assay, DOR; details: CHO cell membranes; mean ± SEM (n ≥ 3)
T3 construct: expressed in transfected cells; host or cells: CHO cells (provided by Dr. Selley, Virginia Commonwealth University)

With `O=C(N[C@H]1CC[C@@]2(O)[C@H]3Cc4ccc(O)c5c4[C@@]2(CCN3CC2CC2)[C@H]1O5)c1cccc2cc[nH]c12` [NAN, 17-cyclopropylmethyl-3,14β-dihydroxy-4,5α-epoxy-6α-(indole-7-carboxamido)morphinan] the Ki (KOR) was 1.69 ± 0.35 nM, the “MOR [35S]-GTPγS binding % Emax of DAMGO” value (MOR) was 19.11 ±3.31% and the Ki [1] was 13.7 ± 1.39 nM.
